In experiment [1] the target is T1, huPPARγ (Homo sapiens, UniProt P37231).
T1 sequence (P37231 1-505): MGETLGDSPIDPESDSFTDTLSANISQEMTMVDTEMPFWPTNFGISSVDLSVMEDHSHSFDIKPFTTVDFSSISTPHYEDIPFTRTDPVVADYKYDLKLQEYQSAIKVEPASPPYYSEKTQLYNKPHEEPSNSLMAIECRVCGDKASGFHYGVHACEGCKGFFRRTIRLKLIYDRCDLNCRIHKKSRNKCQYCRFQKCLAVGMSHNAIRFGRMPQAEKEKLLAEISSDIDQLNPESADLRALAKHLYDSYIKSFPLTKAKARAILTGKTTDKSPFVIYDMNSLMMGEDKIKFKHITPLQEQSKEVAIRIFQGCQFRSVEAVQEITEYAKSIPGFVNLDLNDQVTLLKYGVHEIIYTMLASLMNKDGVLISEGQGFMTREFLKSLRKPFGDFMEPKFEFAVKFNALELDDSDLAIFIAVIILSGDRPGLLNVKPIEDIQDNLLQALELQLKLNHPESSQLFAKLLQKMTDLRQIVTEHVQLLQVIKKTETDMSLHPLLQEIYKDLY
T1 sequence (P19793 1-462 partner): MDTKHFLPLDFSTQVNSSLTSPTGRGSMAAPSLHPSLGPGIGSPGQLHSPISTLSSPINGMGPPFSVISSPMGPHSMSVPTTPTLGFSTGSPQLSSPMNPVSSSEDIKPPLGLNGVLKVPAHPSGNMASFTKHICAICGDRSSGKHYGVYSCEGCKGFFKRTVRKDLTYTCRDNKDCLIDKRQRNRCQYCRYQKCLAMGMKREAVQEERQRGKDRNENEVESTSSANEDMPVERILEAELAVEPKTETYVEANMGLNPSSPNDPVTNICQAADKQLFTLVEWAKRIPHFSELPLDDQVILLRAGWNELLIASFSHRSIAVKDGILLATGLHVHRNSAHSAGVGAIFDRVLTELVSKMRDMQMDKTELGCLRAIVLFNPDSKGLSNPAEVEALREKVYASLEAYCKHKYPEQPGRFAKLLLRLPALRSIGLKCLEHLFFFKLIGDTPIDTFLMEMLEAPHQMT
Nature of the experiment: DNA-dependent binding (ABCD binding) using SPA technology, huPPARγ. The settings on record: SPA displacement of tritium-labeled PPARγ agonist radioligand. The protocol:
(§1) DNA-dependent binding (ABCD binding) was carried out using SPA technology with PPAR receptors. Tritium-labeled PPARα and PPARγ agonists were used as radioligands for generating displacement curves and IC50 values with compounds of the invention. Cotransfection assays were carried out in CV-1 cells. The reporter plasmid contained an acylCoA oxidase (AOX) PPRE and TK promoter upstream of the luciferase reporter cDNA. Appropriate PPARs and RXRα were constitutively expressed using plasmids containing the CMV promoter. […] In order to eliminate such interference, a GAL4 chimeric system was used in which the DNA binding domain of the transfected PPAR was replaced by that of GAL4, and the GAL4 response element was utilized in place of the AOX PPRE. Cotransfection efficacy was determined relative to PPARα agonist and PPARγ agonist reference molecules. Efficacies were determined by computer fit to a concentration-response curve, or in some cases at a single high concentration of agonist (10 μM). For binding or cotransfection studies with receptors other than PPARs, similar assays were carried out using appropriate ligands, receptors, reporter constructs, etc., for that particular receptor.
(§2) These studies were carried out to evaluate the ability of compounds of the invention to bind to and/or activate various nuclear transcription factors, particularly huPPARα (“hu” indicates “human”) and huPPARγ. These studies provide in vitro data concerning efficacy and selectivity of compounds of the invention. Furthermore, binding and cotransfection data for compounds of the invention were compared with corresponding data for marketed compounds that act on either huPPARα or huPPARγ.

Experiment [2] concerns the target T2, huPPARα (Homo sapiens, UniProt Q07869).
T2 sequence (Q07869 1-468): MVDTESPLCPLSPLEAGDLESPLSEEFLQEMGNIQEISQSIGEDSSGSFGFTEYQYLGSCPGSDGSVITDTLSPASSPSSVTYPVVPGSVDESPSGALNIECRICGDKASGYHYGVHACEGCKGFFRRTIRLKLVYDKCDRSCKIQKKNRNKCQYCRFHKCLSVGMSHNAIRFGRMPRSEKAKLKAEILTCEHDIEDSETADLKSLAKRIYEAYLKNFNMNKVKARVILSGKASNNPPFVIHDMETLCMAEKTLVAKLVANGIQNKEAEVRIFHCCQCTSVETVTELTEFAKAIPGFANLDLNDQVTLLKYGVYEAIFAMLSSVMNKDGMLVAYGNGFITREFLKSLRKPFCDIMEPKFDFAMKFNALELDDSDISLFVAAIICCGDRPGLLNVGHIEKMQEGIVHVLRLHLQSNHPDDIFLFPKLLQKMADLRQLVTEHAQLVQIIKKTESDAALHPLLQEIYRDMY
T2 sequence (P19793 1-462 partner): T1 sequence (P19793 1-462 partner)
Nature of the experiment: DNA-dependent binding (ABCD binding) using SPA technology, huPPARα. The settings on record: SPA displacement of tritium-labeled PPARα agonist radioligand. The protocol: as §1, §2

The target in experiment [3] is T1, huPPARγ. Nature of the experiment: Cotransfection assay in CV-1 cells, huPPARγ. Further details: Appropriate PPARs and RXRα were constitutively expressed using plasmids containing the CMV promoter; expressed in transfected cells; host or cells: CV-1 cells. The settings on record: AOX PPRE luciferase reporter, relative to PPARγ agonist reference molecule, read-out: huPPARγ CTF Efficacy. Type of experiment: cell-based. The protocol:
as §1, §2
(In general: Reporter assays use an easily measured gene product as a stand-in for the process of interest.)

The text below walks through data of patent US7345070B2, “Peroxisome proliferator activated receptor agonists” (Eli Lilly and Company, priority 2000, dated 2008).

As a reminder, the IC50 is the concentration at which inhibition is half-maximal. Read a high IC50 as weaker potency in that assay.

Consider `Cc1oc(-c2cccc(Br)c2)nc1CCOc1ccc(CC(C)(Oc2ccccc2)C(=O)O)cc1` (stereo not drawn) [Example 8, 3-(4-{2-[2-(3-Bromophenyl)-5-methyloxazol-4-yl]ethoxy}phenyl)-2-methyl-2-phenoxypropionic acid], for which the IC50 in experiment [1] was 0.024 µM; in experiment [2] it was 0.063 µM. In experiment [3], the Emax turned out to be 75%.

For `Cc1oc(C2(C)CCCCC2)nc1CCOc1ccc(CC(C)(Oc2ccccc2)C(=O)O)cc1` (stereo not drawn) [Example 9, 2-Methyl-3-(4-{2-[5-methyl-2-(1-methylcyclohexyl)oxazol-4-yl]ethoxy}phenyl)-2-phenoxypropionic acid], the figures for the IC50 in experiment [1] and in experiment [2] were 0.011 µM and 0.041 µM, respectively. Also, in experiment [3], the Emax was found to be 73%.

On to `Cc1oc(-c2cccs2)nc1CCOc1ccc(CC(C)(Oc2ccc(C(C)(C)C)cc2)C(=O)O)cc1` (stereo not drawn) [Example 17, 2-Methyl-3-{4-[2-(5-methyl-2-thiophen-2-yl-oxazol-4-yl)-ethoxy]-phenyl}-2-(4-tert-butylphenoxy)-propionic acid], for which the figures for the IC50 in experiment [1] and in experiment [2] were 0.067 µM and 0.068 µM, respectively. Further, the Emax in experiment [3] is 105%.

Regarding `Cc1oc(C2CCCCC2)nc1CCOc1ccc(CC(C)(Oc2ccc(C(C)(C)C)cc2)C(=O)O)cc1` (stereo not drawn) [Example 18, 2-Methyl-3-(4-{2-[5-methyl-2-cyclohexylyl-oxazol-4-yl]-ethoxy}-phenyl)-2-(4-tert-butylphenoxy)-propionic acid], the IC50 came to 0.06 µM in experiment [1] and 0.072 µM in experiment [2]. For the same molecule, the Emax in experiment [3] amounted to 112%.

Take `COc1ccc(OC(C)(Cc2ccc(OCCc3nc(-c4cccs4)oc3C)cc2)C(=O)O)cc1` (stereo not drawn) [Example 19, 2-Methyl-3-{4-[2-(5-methyl-2-thiophen-2-yl-oxazol-4-yl)-ethoxy]-phenyl}-2-(4-methoxyphenoxy)-propionic acid]: the IC50 in experiment [1] is 0.08 µM; in experiment [2] it was 0.085 µM. The Emax in experiment [3] amounted to 23%.

`Cc1oc(-c2cccs2)nc1CCOc1ccc(CC(C)(Oc2cccc(F)c2)C(=O)O)cc1` (stereo not drawn) [Example 22, 2-(3-Fluoro-phenoxy)-2-methyl-3-{4-[2-(5-methyl-2-thiophen-2-yl-oxazol-4-yl)-ethoxy]-phenyl}-propionic acid]: the IC50 in experiment [1] came to 0.085 µM; in experiment [2] it was 0.07 µM. In addition, the Emax in experiment [3] is 12%.

`Cc1oc(C2CCCCC2)nc1CCOc1ccc(CC(C)(Oc2cccc(F)c2)C(=O)O)cc1` (stereo not drawn) [Example 23, 2-(3-Fluoro-phenoxy)-2-methyl-3-{4-[2-(5-methyl-2-cyclohexyl-oxazol-4-yl)-ethoxy]-phenyl}-propionic acid]: the values for the IC50 in experiment [1] and in experiment [2] were 0.081 µM and 0.063 µM, respectively. Moreover, in experiment [3], the Emax was determined as 17%.

As to `Cc1oc(-c2cccs2)nc1CCOc1ccc(CC(C)(Oc2cccc(C(C)(C)C)c2)C(=O)O)cc1` (stereo not drawn) [Example 25, 2-(3-tert-Butyl-phenoxy)-2-methyl-3-{4-[2-(5-methyl-2-thiophen-2-yl-oxazol-4-yl)-ethoxy]-phenyl}-propionic acid], the IC50 was found to be 0.07 µM in experiment [1] and 0.073 µM in experiment [2]. The Emax in experiment [3] turned out to be 106%.

For `Cc1oc(-c2cccs2)nc1CCOc1ccc(CC(C)(Oc2ccccc2F)C(=O)O)cc1` (stereo not drawn) [Example 27, 2-(2-Fluoro-phenoxy)-2-methyl-3-{4-[2-(5-methyl-2-thiophen-2-yl-oxazol-4-yl)-ethoxy]-phenyl}-propionic acid], the IC50 in experiment [1] turned out to be 0.076 µM; in experiment [2], 0.075 µM. For the same molecule, in experiment [3], the Emax came to 15%.

As to `Cc1oc(-c2ccccc2)nc1CCOc1ccc(CC(C)(Oc2ccc(Cl)cc2)C(=O)O)cc1` (stereo not drawn) [Example 29, 2-(4-Chloro-phenoxy)-2-methyl-3-{4-[2-(5-methyl-2-phenyl-oxazol-4-yl)-ethoxy]-phenyl}-propionic acid], the IC50 in experiment [1] amounted to 0.048 µM; in experiment [2], 0.116 µM. Moreover, the Emax in experiment [3] amounted to 82%.

With `Cc1oc(C2CCCCC2)nc1CCOc1ccc(CC(C)(Oc2ccc(C3CCCCC3)cc2)C(=O)O)cc1` (stereo not drawn) [Example 34, 3-{4-[2-(2-Cyclohexyl-5-methyl-oxazol-4-yl)-ethoxy]-phenyl}-2-(4-cyclohexyl-phenoxy)-2-methyl-propionic acid], the IC50 in experiment [1] stood at 0.077 µM; in experiment [2], 0.091 µM. In experiment [3], the Emax was 76%.

Turning to `Cc1ccc(OC(C)(Cc2ccc(OCCc3nc(C4CCCCC4)oc3C)cc2)C(=O)O)cc1C` (stereo not drawn) [Example 35, 3-{4-[2-(2-Cyclohexyl-5-methyl-oxazol-4-yl)-ethoxy]-phenyl}-2-(3,4-dimethyl-phenoxy)-2-methyl-propionic acid], the figures for the IC50 in experiment [1] and in experiment [2] were 0.079 µM and 0.066 µM, respectively. Also, the Emax in experiment [3] worked out at 21%.

For the molecule `Cc1ccc(OC(C)(Cc2ccc(OCCc3nc(-c4cccs4)oc3C)cc2)C(=O)O)cc1C` (stereo not drawn) [Example 36, 2-(3,4-Dimethyl-phenoxy)-2-methyl-3-{4-[2-(5-methyl-2-thiophen-2-yl-oxazol-4-yl)-ethoxy]-phenyl}-propionic acid], the figures for the IC50 in experiment [1] and in experiment [2] were 0.088 µM and 0.072 µM, respectively. Besides, the Emax in experiment [3] was 21%.

In the case of `Cc1ccc(OC(C)(Cc2ccc(OCCc3nc(-c4cccs4)oc3C)cc2)C(=O)O)cc1` (stereo not drawn) [Example 40, 2-Methyl-3-{4-[2-(5-methyl-2-thiophen-2-yl-oxazol-4-yl)-ethoxy]-phenyl}-2-p-tolyloxy-propionic acid], the results for the IC50 in experiment [1] and in experiment [2] were 0.01 µM and 0.05 µM, respectively. In experiment [3], the Emax is 110%.

`Cc1ccc(OC(C)(Cc2ccc(OCCc3nc(C4CCCCC4)oc3C)cc2)C(=O)O)cc1` (stereo not drawn) [Example 41, 3-{4-[2-(2-Cyclohexyl-5-methyl-oxazol-4-yl)-ethoxy]-phenyl}-2-methyl-2-p-tolyloxy-propionic acid]: the values for the IC50 in experiment [1] and in experiment [2] were 0.109 µM and 0.066 µM, respectively. For the same molecule, the Emax in experiment [3] stood at 11%.

Regarding `Cc1oc(C2CCCCC2)nc1CCOc1ccc(CC(C)(Oc2ccc(OC(F)(F)F)cc2)C(=O)O)cc1` (stereo not drawn) [Example 44, 3-{4-[2-(2-Cyclohexyl-5-methyl-oxazol-4-yl)-ethoxy]-phenyl}-2-methyl-2-(4-trifluoromethoxy-phenoxy)-propionic acid], the IC50 in experiment [1] was 0.159 µM; in experiment [2], 0.157 µM. Also, the Emax in experiment [3] stood at 73%.

Take `Cc1oc(-c2cccs2)nc1CCOc1ccc(CC(C)(Oc2ccc(C(F)(F)F)cc2)C(=O)O)cc1` (stereo not drawn) [Example 51, 2-Methyl-3-{4-[2-(5-methyl-2-thiophen-2-yl-oxazol-4-yl)-ethoxy]-phenyl}-2-(4-trifluoromethyl-phenoxy)-propionic acid]: the figures for the IC50 in experiment [1] and in experiment [2] were 0.08 µM and 0.064 µM, respectively. In addition, the Emax in experiment [3] stood at 48%.
